US10849901B2, “Arf6 inhibitors and methods of synthesis and use thereof” (Navigen, Inc., priority 2014, dated 2020)
“Also recorded” adds a separate entry of the source. Like-named read-outs stand apart in the source and are kept apart here.

Legend:
[1] = system: VEGF-induced retinal permeability; assay: VEGF-induced retinal permeability in rats (Evans blue dye); assay type: in vivo; settings: rats; Compound 38 60 mg/kg IP, Avastin 200 μg intraocular (FIG. 8)
Protocol: In the experiment, VEGF (500 ng) and Avastin (200 μg) were given to rats in a single intraocular injection on Day 1. Compound 38 (60 mg/kg) was administered by IP injection 1 hour prior to VEGF on Day 1. Rats were given Evans blue dye (EBD) via IV infusion on Day 2, and the retinas were harvested after an additional 1.5 hours. The retinas were dissected and incubated overnight in formamide. Vascular leak was calculated on Day 3.

[2] = target: Arf6 (Homo sapiens (Human), UniProt P62330); assay: Fluorometric assay for Arf6 nucleotide exchange catalyzed by ARNO Sec7 domain (GTP-BODIPY FL); assay type: biochemical
Arf6 (Homo sapiens (Human), UniProt P62330), sequence (P62330 14-175): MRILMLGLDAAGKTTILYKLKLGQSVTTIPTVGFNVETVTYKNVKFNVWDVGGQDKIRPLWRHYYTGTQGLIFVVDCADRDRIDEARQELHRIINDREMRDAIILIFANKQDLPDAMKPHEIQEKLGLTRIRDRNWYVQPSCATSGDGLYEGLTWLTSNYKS

[3] = system: oxygen-induced retinopathy; assay: Oxygen-induced retinopathy (OIR) in mice; assay type: in vivo; settings: 5 μg intraocular Days 12 and 15, measured Day 17
Protocol: In the experiment, mice pups were placed in a 75% oxygen environment from Days 5-12. The mice were returned to a normal oxygen environment on Day 13. The test compounds were administered (5 μg) by intraocular injection on Days 12 and 15, and the area of neovascularization was measured on Day 17. Compound 38 was compared with SU4312 in oxygen-induced retinopathy (OIR) in mice (see FIG. 11). […]

[4] = system: Choroidal Neovascularization (CNV); assay: Laser-induced choroidal neovascularization (CNV) in mice; assay type: in vivo; settings: 5 μg, 0.5 μg and 0.05 μg on Days 0 and 7, measured Day 14
Protocol: In the experiment on Day 0, the Bruch's membrane of each eye was disrupted with a laser. On Days 0 and 7, test compounds were administered, and on Day 14, the area of CNV was measured. Commercially available compound SU4312 was used as a positive control. Compound 38 was dosed at 5 μg, 0.5 μg, and 0.05 μg, as noted in FIG. 9.

[5] = system: LOX melanoma cells; assay: Cell invasion assay (Matrigel Invasion Chambers); assay type: cell-based
Excerpt: Cell invasion assay: This assay uses Matrigel Invasion Chambers (BD Biosciences) and monitors cell penetration through 8.0 μm filters coated with a solubilized basement membrane matrix, which serves as barrier for non-invading cells (see, e.g., Albini A, Iwamoto Y, Kleinman H K, Martin G R, Aaronson S A, Kozlowski J M, McEwan R N. A rapid in vitro assay for quantitating the invasive potential of tumor cells. Cancer Res. 1987 Jun. 15; 47(12):3239-45).

[6] = target: Arf6 (Mus musculus (Mouse), UniProt P62331); assay: Arf6 pulldown assay (GTP-bound Arf6, GST-Gga3, Western blot); assay type: cell-based; settings: NIH3T3 cells, 4 hours incubation
Arf6 (Mus musculus (Mouse), UniProt P62331), sequence (P62331 whole entry): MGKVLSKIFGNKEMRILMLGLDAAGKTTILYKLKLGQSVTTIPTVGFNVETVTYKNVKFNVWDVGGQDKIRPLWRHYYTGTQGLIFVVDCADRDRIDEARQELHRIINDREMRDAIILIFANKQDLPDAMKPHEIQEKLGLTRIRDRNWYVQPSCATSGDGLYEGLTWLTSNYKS
Protocol: The cell cultures were incubated in the presence of test compounds for 4 hours followed by pull-down of GTP-bound Arf6 from cell lysates using recombinant GST-Gga3 immobilized on glutathione agarose and Western blot analysis.
Arf6 pulldown assay: Assessment of intracellular levels of active Arf6 may be a direct mechanism-based approach for monitoring on-target cellular activities of active Arf6 inhibitors. A commercially available pull-down technique, which relies on recombinant Gga3 protein as a sensor of the GTP-bound state for the members of Arf protein family, can be employed for this purpose (see, e.g., Shiba T, Kawasaki M, Takatsu H, Nogi T, Matsugaki N, Igarashi N, Suzuki M, Kato R, Nakayama K, Wakatsuki S. Molecular mechanism of membrane recruitment of GGA by ARF in lysosomal protein transport. Nat Struct Biol. 2003 May; 10(5):386-93).
The vendor's procedure was modified from 10-cm culture dish to 24-well plate format and adapted to a number of different cell lines, including cultured mouse embryonic fibroblasts NIH 3T3 due to its robust response to Arf6 inhibitors observed in the proof-of-principle studies (see FIG. 2).

[7] = system: LOX melanoma cells; assay: Cell proliferation assay (WST-8), LOX; assay type: cell-based; settings: concentrations greater than 1 μM
Excerpt: (§1) Cell proliferation assay: This assay employs WST-8 colorimetric readout (Dojindo) and relies on the total activity of mitochondrial dehydrogenases as a measure of the number of viable cells over time.

[8] = system: LPS-induced acute lung injury; assay: LPS-induced acute lung injury in mice (BALF analysis); assay type: in vivo; settings: 24 hours after LPS, Compound 38 60 mg/kg, dexamethasone 5 mg/kg
Protocol: In the experiment, LPS (5 mg/kg) was given by intra-tracheal instillation. Dexamethasone (5 mg/kg) was given as a positive control 2 hours after the LPS. Bronchoalveolar fluid (BALF) was analyzed for cell count and protein 24 hours after the LPS.

[9] = system: VEGF-induced retinal permeability; assay: VEGF-induced retinal permeability in mice (Evans blue dye); assay type: in vivo; settings: mice
Protocol: (§2) In the experiment, VEGF (50 ng) and either Compound 38 or 65 (500 ng) or NAV-3745 (500 ng) were given to mice in a single intraocular injection. Evans blue dye (EBD) was given via IV approximately 6 hours after the injection, and the retinas were harvested after an additional 2 hours. Retinal permeability was measured on Day 2 after an overnight extraction of EBD in formamide, at OD 620-740 nm.
as §2, with “the test compound” for “either Compound 38 or 65 (500 ng) or NAV-3745 (500 ng)”, “injection. Avastin was given at a dose of 20 μg, Compound 38 at either 50 ng or 500 ng (as noted in FIG. 7), and SU4312 at 5 μg. As with the previous experiment,” for “injection.”

[10] = system: LN-229 glioblastoma cells; assay: Cell proliferation assay (WST-8), LN-229; assay type: cell-based; settings: concentrations greater than 1 μM
Excerpt: as §1

[11] = system: H1N1 virus; settings: IP QD five days; Compound 65 20 mg/kg, ribavirin 75 mg/kg
[12] = 20 nM Arf6 assay, read-out: IC50 (μM) 20 nM Arf6
[13] = 200 nM Arf6 assay, read-out: IC50 (μM) 200 nM Arf6
[14] = 500 ng single intraocular injection with VEGF 50 ng (FIG. 6)

| SMILES | VEGF-induced retinal permeability [1] | IC50 [2, 12] [µM] | IC50 [2, 13] [µM] | area of neovascularization [3] | area of CNV [4] | FBS-induced LOX cell invasion through Matrigel ([5]; 1 μM) | inhibition of melanoma cell invasion ([5]; LOX melanoma cells) | Inhibition of Arf6 activation (GTP-bound Arf6) [6] | inhibition of LOX cell proliferation [7] | number of cells in the lung fluid (BALF) [8] | protein concentration in the lung fluid (BALF) [8] | VEGF-induced retinal permeability [9, 14] | VEGF-induced retinal permeability ([9]; single intraocular injection, Compound 38 50 ng or 500 ng, Avastin 20 μg, SU4312 5 μg (FIG. 7)) | inhibition of LN-229 cell proliferation [10] | mortality of mice infected with H1N1 virus [11] |
| --- | --- | --- | --- | --- | --- | --- | --- | --- | --- | --- | --- | --- | --- | --- | --- |
| O=c1cc(-c2ccc([N+](=O)[O-])cc2)[nH]c2c(-c3ccc(Cl)cc3)c(Cc3ccccc3)nn12 [Compound 38] | reduced VEGF-induced retinal permeability | 1.8 | 1.4 | reduced the area of neovascularization | reduced the area of CNV in a dose-dependent manner | substantially inhibit, or completely inhibit | can inhibit invasion; also recorded: more potent inhibitor of melanoma cell invasion than SecinH3 | Inhibition of Arf6 activation | can inhibit proliferation; also recorded: potent inhibitor | reduced the number of cells | reduced | reduced VEGF-induced retinal permeability | reduced VEGF-induced retinal permeability | can inhibit proliferation; also recorded: potent inhibitor | – |
| O=c1cc(Cc2ccccc2)[nH]c2c(-c3ccc(Cl)cc3)c(C(F)(F)F)nn12 [Compound 65] | – | 3.7 | 4.9 | – | – | – | – | – | – | – | – | reduced VEGF-induced retinal permeability | – | – | reduced the mortality of mice nearly as well as ribavirin |
